Values after ≈ are worked out from the molar mass of the structure shown.
Key:
[1] = tested on: C. difficile strain 4118 (CD4118, ATCC BAA-1870, ribotype 027); experiment: MIC by broth microdilution; assay type: cell-based, Clostridium difficile
[2] = tested on: S. epidermidis 1457; experiment: MIC by broth microdilution; assay type: cell-based; conditions: Staphylococcus epidermidis; S. epidermidis 1457; CAMHB, aerobic; duplicate; read-out: MIC
[3] = tested on: S. aureus RN4220; experiment: MIC by broth microdilution; assay type: cell-based; conditions: Staphylococcus aureus, CAMHB, aerobic, duplicate
[4] = tested on: C. clostridioforme ATCC 25537; experiment: MIC by broth microdilution; assay type: cell-based, Clostridium clostridioforme; conditions: Clostridium, ATCC25537; C. clostridioforme ATCC 25537; BHIS, anaerobic; duplicate; read-out: MIC
[5] = tested on: L. reuteri Strain CF48-3A; experiment: MIC by broth microdilution; assay type: cell-based, Lactobacillus reuteri; conditions: Limosilactobacillus reuteri; L. reuteri CF48-3A; CAMHB with 5% laked horse blood, ~48 h; duplicate; read-out: MIC
[6] = tested on: A. baumannii M2; experiment: MIC by broth microdilution; assay type: cell-based; conditions: Acinetobacter baumannii; A. baumannii M2; CAMHB, aerobic; duplicate; read-out: MIC
[7] = tested on: B. longum subsp. longum Strain 44B; experiment: MIC by broth microdilution; assay type: cell-based; conditions: Bifidobacterium longum; B. longum subsp. longum 44B; LSM broth, anaerobic; duplicate; read-out: MIC
[8] = tested on: panel of obligate aerobes, facultative anaerobes and obligate anaerobes; experiment: Antibacterial spectrum, MIC against a panel of bacteria; assay type: cell-based; conditions: whole panel of Table S3
[9] = tested on: C. sporogenes ATCC 15579; experiment: MIC by broth microdilution; assay type: cell-based; conditions: Clostridium sporogenes, ATCC15579, BHIS, anaerobic, duplicate
[10] = tested on: P. aeruginosa PAO1; experiment: MIC by broth microdilution; assay type: cell-based; conditions: Pseudomonas aeruginosa; P. aeruginosa PAO1; CAMHB, aerobic; duplicate; read-out: MIC
[11] = tested on: L. plantarum ATCC 8014; experiment: MIC by broth microdilution; assay type: cell-based; conditions: Lactiplantibacillus plantarum, ATCC8014; L. plantarum ATCC 8014; CAMHB with 5% laked horse blood, ~48 h; duplicate; read-out: MIC
[12] = tested on: P. distasonis ATCC 8503; experiment: MIC by broth microdilution; assay type: cell-based; conditions: Parabacteroides distasonis, ATCC8503; P. distasonis ATCC 8503; supplemented Brucella broth, anaerobic; duplicate; read-out: MIC
[13] = tested on: B. subtilis ATCC 6051; experiment: MIC by broth microdilution; assay type: cell-based; conditions: Bacillus subtilis, ATCC6051; B. subtilis ATCC 6051; CAMHB, aerobic; duplicate; read-out: MIC
[14] = tested on: B. thetaiotaomicron ATCC 29148; experiment: microbe, parasite or virus in culture; assay type: cell-based; conditions: Bacteroides thetaiotaomicron, ATCC29148; B. thetaiotaomicron ATCC 29148; supplemented Brucella broth, anaerobic; duplicate; read-out: MIC
[15] = tested on: B. fragilis Strain CL05T00C42; experiment: MIC by broth microdilution; assay type: cell-based; conditions: Bacteroides fragilis; B. fragilis CL05T00C42; supplemented Brucella broth, anaerobic; duplicate; read-out: MIC
[16] = tested on: B. breve Strain EX336960VC19; experiment: MIC by broth microdilution; assay type: cell-based; conditions: Bifidobacterium breve; B. breve EX336960VC19; LSM broth, anaerobic; duplicate; read-out: MIC
[17] = tested on: C. difficile strain 630 (CD630, ATCC BAA-1382-FZ, ribotype 012); experiment: MIC by broth microdilution; assay type: cell-based, Clostridium difficile
[18] = tested on: L. johnsonii Strain 135-1-CHN; experiment: MIC by broth microdilution; assay type: cell-based; conditions: Lactobacillus johnsonii, STRAIN1351CHN; L. johnsonii 135-1-CHN; CAMHB with 5% laked horse blood, ~48 h; duplicate; read-out: MIC
[19] = tested on: P. nigrescens ATCC 33563; experiment: MIC by broth microdilution; assay type: cell-based; conditions: Prevotella nigrescens, ATCC33563; P. nigrescens ATCC 33563; supplemented Brucella broth, anaerobic; duplicate; read-out: MIC
[20] = tested on: C. difficile isolate 20110961 (ribotype A12); experiment: MIC by broth microdilution; assay type: cell-based, Clostridium difficile; conditions: Clostridioides difficile; isolate 20110961, ribotype A12; duplicate; read-out: MIC
[21] = tested on: C. difficile isolate 20121190 (ribotype 126); experiment: MIC by broth microdilution; assay type: cell-based, Clostridium difficile; conditions: Clostridioides difficile; isolate 20121190, ribotype 126; duplicate; read-out: MIC
[22] = tested on: C. difficile isolate 20111163 (ribotype 024); experiment: MIC by broth microdilution; assay type: cell-based, Clostridium difficile; conditions: Clostridioides difficile; isolate 20111163, ribotype 024; duplicate; read-out: MIC
[23] = tested on: C. difficile isolate 20110960 (ribotype 017); experiment: MIC by broth microdilution; assay type: cell-based, Clostridium difficile; conditions: Clostridioides difficile; isolate 20110960, ribotype 017; duplicate; read-out: MIC
[24] = tested on: C. difficile isolate 20110869 (ribotype 001_072); experiment: MIC by broth microdilution; assay type: cell-based, Clostridium difficile; conditions: Clostridioides difficile; isolate 20110869, ribotype 001_072; duplicate; read-out: MIC
[25] = tested on: C. difficile isolate 20100584 (ribotype 014); experiment: MIC by broth microdilution; assay type: cell-based, Clostridium difficile; conditions: Clostridioides difficile; isolate 20100584, ribotype 014; duplicate; read-out: MIC
[26] = Hemolysis assay; assay type: cell-based; conditions: sheep, sheep red blood cells (3% suspension), pH 7.4; 32 µg/mL, 1 h, 37 °C; 1% Triton X-100 positive control; triplicate; read-out: Hemolysis (%)
Description: Sheep red blood cells (Innovative Research, Novi, MI, USA) were washed three times with PBS pH 7.4. A 3% cell suspension in PBS (100 μL) was added to test compounds in PBS (100 μL, to a final concentration of 32 μg/mL), and then incubated at 37 °C for 1 h. The plate was centrifuged at 500 × g for 10 min, and supernatants (100 μL) were transferred to a clean 96-well plate. Hemolysis was determined by measuring absorbance at 540 nm, with 1% Triton X-100 as the positive control and 0.5% DMSO in PBS as the negative control. Hemolysis assays were performed in triplicate.

[27] = tested on: C. difficile isolate 20120016 (ribotype 019); experiment: MIC by broth microdilution; assay type: cell-based, Clostridium difficile; conditions: Clostridioides difficile; isolate 20120016, ribotype 019; duplicate; read-out: MIC
[28] = tested on: C. difficile isolate 20100422 (ribotype 054); experiment: MIC by broth microdilution; assay type: cell-based, Clostridium difficile; conditions: Clostridioides difficile; isolate 20100422, ribotype 054; duplicate; read-out: MIC
[29] = tested on: 16 C. difficile isolates; experiment: MIC by broth microdilution, summary over 16 C. difficile isolates; assay type: cell-based, Clostridium difficile; conditions: n = 2; for MIC50 / MIC90: Clostridioides difficile; for MIC50: MIC at which 50% of the 16 isolates are inhibited, read-out: MIC50; for MIC90: MIC at which 90% of the 16 isolates are inhibited, read-out: MIC90; for MIC Range: range over 16 C. difficile isolates
[30] = tested on: C. difficile isolate 20110740 (ribotype 018); experiment: MIC by broth microdilution; assay type: cell-based, Clostridium difficile; conditions: Clostridioides difficile; isolate 20110740, ribotype 018; duplicate; read-out: MIC
[31] = tested on: C. difficile isolate 20110973 (ribotype 106); experiment: MIC by broth microdilution; assay type: cell-based, Clostridium difficile; conditions: Clostridioides difficile; isolate 20110973, ribotype 106; duplicate; read-out: MIC
[32] = tested on: C. difficile isolate 20121412 (ribotype 047); experiment: MIC by broth microdilution; assay type: cell-based, Clostridium difficile; conditions: Clostridioides difficile; isolate 20121412, ribotype 047; duplicate; read-out: MIC
[33] = tested on: C. difficile isolate 20110742 (ribotype 002); experiment: MIC by broth microdilution; assay type: cell-based, Clostridium difficile; conditions: Clostridioides difficile; isolate 20110742, ribotype 002; duplicate; read-out: MIC
[34] = tested on: C. difficile isolate 20110566 (ribotype 020); experiment: MIC by broth microdilution; assay type: cell-based, Clostridium difficile; conditions: Clostridioides difficile; isolate 20110566, ribotype 020; duplicate; read-out: MIC
[35] = tested on: C. difficile isolate 20110986 (ribotype 078); experiment: MIC by broth microdilution; assay type: cell-based, Clostridium difficile; conditions: Clostridioides difficile; isolate 20110986, ribotype 078; duplicate; read-out: MIC

With O=C(Nc1ccc(Oc2ccc(Cl)cc2)cc1)c1cc(I)cc(I)c1 [Compound 5i] the MIC ([1]; Clostridioides difficile, ATCCBAA1870, BHIS broth, anaerobic, 20–24 h, n = 2, read-out: MIC C. difficile 4118) was over 32 µg/mL, the “in vitro activity against CD4118 (in words)” value ([1]; growth inhibition, MIC assay) was “inactive” and the MIC [2] was over 32 µg/mL. The MIC [3] was over 32 µg/mL, the MIC [4] was over 32 µg/mL and the MIC [5] was over 32 µg/mL. The MIC [6] was over 32 µg/mL, the MIC [7] was over 32 µg/mL and the “antibacterial activity (in words)” value [8] was “lacked antibacterial activity”. For the same molecule, the MIC [9] was over 32 µg/mL, the MIC [10] was over 32 µg/mL and the MIC [11] was over 32 µg/mL. It also gave an MIC [12] of over 32 µg/mL, an MIC [13] of over 32 µg/mL and an MIC [14] of over 32 µg/mL. For the same molecule, the MIC [15] was over 32 µg/mL, the MIC [16] was over 32 µg/mL and the MIC ([17]; Clostridioides difficile, ATCCBAA1382, BHIS broth, anaerobic, 20–24 h, n = 2) was over 32 µg/mL. The “in vitro activity against CD630 (in words)” value ([17]; growth inhibition, MIC assay) was “inactive”, the MIC [18] was over 32 µg/mL and the MIC [19] was over 32 µg/mL.

O=C(Nc1cc(Cl)cc(Cl)c1O)c1c(O)c(Cl)cc(Cl)c1Cl [Oxyclozanide, oxyclozanide] gave an MIC [20] of 1 µg/mL (≈ 2.49 µM), an MIC [21] of 1 µg/mL (≈ 2.49 µM) and an MIC [22] of 0.5 µg/mL (≈ 1.25 µM). It also gave an MIC [23] of 0.5 µg/mL (≈ 1.25 µM), an MIC [24] of 0.5 to 1 µg/mL (≈ 1.25 to 2.49 µM) and an MIC [25] of 1 µg/mL (≈ 2.49 µM). For the same molecule, the hemolysis at 1 h, 32 µg/mL [26] was under 1%, the MIC [27] was 0.5 µg/mL (≈ 1.25 µM) and the MIC [28] was 1 µg/mL (≈ 2.49 µM). For the same molecule, the MIC50 [29] was 1 µg/mL (≈ 2.49 µM), the MIC90 [29] was 1 µg/mL (≈ 2.49 µM) and the “MIC Range” value [29] was 0.5 to 2 µg/mL. It also gave an MIC [30] of 1 µg/mL (≈ 2.49 µM), an MIC [31] of 1 µg/mL (≈ 2.49 µM) and an MIC [32] of 2 µg/mL (≈ 4.98 µM). For the same molecule, the MIC [33] was 1 µg/mL (≈ 2.49 µM), the MIC [34] was 1 µg/mL (≈ 2.49 µM) and the MIC [35] was 1 µg/mL (≈ 2.49 µM).

Molecule O=C(Nc1ccc([N+](=O)[O-])cc1Cl)c1cc(Cl)ccc1O [Niclosamide, niclosamide] has an MIC [20] of 1 µg/mL (≈ 3.06 µM), an MIC [21] of 0.5 µg/mL (≈ 1.53 µM) and an MIC [22] of 1 µg/mL (≈ 3.06 µM). The MIC [23] was 1 µg/mL (≈ 3.06 µM), the MIC [24] was 2 µg/mL (≈ 6.11 µM) and the MIC [25] was 0.5 µg/mL (≈ 1.53 µM). It also gave a hemolysis at 1 h, 32 µg/mL [26] of under 1%, an MIC [27] of 0.5 µg/mL (≈ 1.53 µM) and an MIC [28] of 0.5 µg/mL (≈ 1.53 µM). The MIC50 [29] was 1 µg/mL (≈ 3.06 µM), the MIC90 [29] was 2 µg/mL (≈ 6.11 µM) and the “MIC Range” value [29] was 0.5 to 4 µg/mL. It also gave an MIC [30] of 1 µg/mL (≈ 3.06 µM), an MIC [31] of 1 µg/mL (≈ 3.06 µM) and an MIC [32] of 1 µg/mL (≈ 3.06 µM). It also gave an MIC [33] of 1 µg/mL (≈ 3.06 µM), an MIC [34] of 1 µg/mL (≈ 3.06 µM) and an MIC [35] of 1 µg/mL (≈ 3.06 µM).

Source: paper PMC5025651, “Reprofiled anthelmintics abate hypervirulent stationary-phase Clostridium difficile” (Scientific Reports, 2016)
